# Like-named read-outs stand apart in the source and are kept apart here.
# Tested on: α7 integrin (LacZ reporter in α7LacZ+/− myoblasts)
# Experiment: qHTS of the LOPAC library and MLSMR (online screen, α7LacZ+/− myoblasts)
# Conditions: for activation at 0.307 µM / activation at 1.53 µM / activation at 7.66 µM / activation at 38.3 µM / Emax / EC50: Mus musculus, Myoblast; for activation at 0.307 µM: read-out: Activity at 0.307 uM [%] **; for activation at 1.53 µM: read-out: Activity at 1.530 uM [%] **; for activation at 7.66 µM: read-out: Activity at 7.660 uM [%] **; for activation at 38.3 µM: read-out: Activity at 38.30uM [%] **; for EC50: read-out: Fit LogAC50 (converted)
# [1] = 48 h, read-out: Fit Infinite Activity [%]
Compound,activation at 0.307 µM (48 h) [%],activation at 1.53 µM (48 h) [%],activation at 7.66 µM (48 h) [%],activation at 38.3 µM (48 h) [%],Emax [1] [%],EC50 [µM],Emax (read-out: Max Response [%]) [%],Score
COc1ccccc1CNc1cc(C)ccn1 [Compound 31],-22.9,-0.943,53.2,62.3,62.2,2.51,,
CN(Cc1c(C(=O)N/N=C/c2cccc(F)c2)nnn1-c1nonc1N)c1ccccc1 [Compound 97],1.91,1.37,59.1,79.3,79.8,5.62,79.3,
Cc1c(C(=O)O)cccc1-n1c(C)cc(/C=N/Nc2ccc([N+](=O)[O-])cn2)c1C [Compound 9],-24.5,6.29,68.1,88.7,92.2,2.82,88.7,85
CCOc1ccc2ccccc2c1C1NC(=O)N(C)C(C)=C1C(=O)OCCOC (stereo not drawn) [Compound 76],-5.81,5.65,55.1,97,106,6.31,97,
O=Cc1ccc(C(=O)OCC(=O)N2CCCC2)cc1 [Compound 35],0,12,71.5,71.8,72.6,2.51,,
O=C(O)CCCNC(=O)CCn1nnc2ccccc2c1=O [Compound 174],-21.7,-16.7,13.6,74.2,83.7,,74.2,
CCOC(=O)C1CCCN(C(=O)CNS(=O)(=O)c2ccc(Br)s2)C1 (stereo not drawn) [Compound 33],-41.8,-14.3,17,31.1,33.2,2,,
CCOC(=O)c1sc(=N)n(-c2ccc(OC)cc2)c1C [Compound 26],-25.4,4.59,41.9,56.1,59.6,2,,
CC1=C(C#N)C(=O)N(C)C(=O)/C1=C\NNc1ccc(F)cc1 [Compound 203],-46,-36.9,8.42,51.8,59.4,,51.8,
COc1ccc(N2CCCC2)c(NC(=O)c2ccc([N+](=O)[O-])o2)c1 [Compound 46],-29.7,4.44,77.6,156,196,7.94,,
Cc1ccc(C2Nc3cccc4cccc(c34)N2)s1 [Compound 24],5.89,19.6,73.1,81.3,82.7,3.16,,
Cc1ccccc1C(=O)Nc1scc(-c2ccc(Br)cc2)c1C(=O)O [Compound 4],9.85,38.3,119,137,137,2.82,,
O=Cc1cnc(N2CCCCC2)s1 [Compound 191],-18.1,-20,-4.2,96,96.3,,96,
Cc1cc(NC(=O)CCC(=O)N(Cc2cccnc2)C(C(=O)NC(C)(C)C)c2ccccc2Cl)no1 (stereo not drawn) [Compound 29],-23.8,-13.5,36,54.9,55.7,3.98,,
CC(=O)Nc1ccc(NC(=O)[C@@H](NC(=O)c2cccc(C)c2)C(C)C)cc1 [Compound 47],17.2,32.2,97.3,142,154,5.62,,
O=C(Cn1nc(-c2ccc(Cl)cc2)ccc1=O)N1CCC2(CC1)OCCO2 [Compound 221],6.38,7.87,16.8,66.1,66.5,,66.1,
COc1ccc(S(=O)(=O)Nc2ccc(S(=O)(=O)Nc3nccs3)cc2)cc1 [Compound 152],-6.73,0,26.3,67.4,88.8,,67.4,
COc1cc2c(cc1NC(=O)Cc1ccc(C)cc1)oc1ccccc12 [Compound 5],-1.8,58.4,87.2,687,87.4,1.12,,
CCc1ccc(N(C(=O)c2snc(C(N)=O)c2N)C(C(=O)NC2CCCC2)c2ccco2)cc1 (stereo not drawn) [Compound 17],-18.3,9.37,52.7,67.6,71.4,2.51,,
C=CCn1c(COc2ccc(Cl)cc2)nnc1SCc1ccc(C#N)cc1 [Compound 220],7.14,9.51,27.6,93.8,95.1,,93.8,
COc1ccccc1OCC(=O)N/N=C1/C=C(C)CC1 [Compound 185],-21.6,-24,0,94.5,94.2,10,94.5,
COc1cc(CNCc2ccc(C(=O)O)cc2)ccc1OCc1ccc(F)cc1 [Compound 57],1,14.6,82.2,113,115,4.47,113,
CC(NC(=O)c1cn(C)c2ccc(S(=O)(=O)N3CCCC3)cc2c1=O)c1ccccc1 (stereo not drawn) [Compound 28],-36,-20.6,48.9,54.7,55.3,2.82,,
O=C(Nc1ccc(Oc2cccnc2)cc1)c1ccccc1Cl [Compound 215],14.2,15.2,40.8,83.3,87.4,10,83.3,
COc1ccc(NC(=O)c2cccc(N3C(=O)c4ccc(C(=O)Nc5ccc(OC)c(O)c5)cc4C3=O)c2)cc1O [Compound 13],-24.8,-27.4,80.7,95.6,94.7,4.47,,
CCCCC(C(=O)NC1CCCC1)N(C(=O)c1snc(C(N)=O)c1N)c1ccc(C)cc1 (stereo not drawn) [Compound 151],-26.6,-26,2.04,63.7,65.1,10,63.7,
CCCCNc1nnc(SCC(=O)c2c(N)n(CCC)c(=O)[nH]c2=O)s1 [Compound 69],0,16.2,62.8,84.4,88.1,3.98,84.4,

# From patent publication US9980943B2, “Methods of treating muscular dystrophy” (BOARD OF REGENTS OF THE NEVADA SYSTEM OF HIGHER EDUCATION, …, priority 2013, dated 2018)
